From patent US10202378B2, “Therapeutic compounds and uses thereof” (GENENTECH, INC., priority 2015, dated 2019)

Tests used:
TAF1-BD1 = TAF1-BD1 (Homo sapiens, UniProt P21675); assay: TAF1-BD1 TR-FRET Binding Assay; details: read-out: TAF1-BD1 HTRF IC50
Description: IC50 Measurements for Inhibitors Using TAF1-BD1 TR-FRET Binding Assay
His/Flag epitope tagged TAF1-BD11381-1497 was cloned, expressed, and purified to homogeneity. TAF1-BD binding and inhibition was assessed by monitoring the engagement of a biotinylated small molecule compound 1000 with the target using the TR-FRET assay technology (Perkin-Elmer). Specifically, in a 384 well ProxiPlate, TAF1-BDI (0.08 uM final) in 50 mM HEPES (pH 7.5; final), 50 mM NaCl (final), 1 mM TCEP (final), 0.1 mg/mL BSA (final), and 0.069 mM Brij-35 (final) was added either in the presence of DMSO (final 0.2% DMSO) or compound dilution series in DMSO. After a 10 minute incubation at room temperature, biotin-ligand (0.08 uM final) was added. After 10 minutes incubation at room temperature, a mixture Eu-W1024 Anti-6×His antibody (Perkin Elmer ADO 110) and SureLight™ Streptavidin-Allophycocyanin (SA-APC, Perkin Elmer CR130-100) were added to final concentrations of 0.2 nM antibody and 0.05 uM SA-APC, respectively. After forty minutes of equilibration at room temperature, the plates were read on an Envision instrument and IC50s calculated using a four parameter logistic model (XLFIT).

TAF1-BD2 = TAF1-BD2 (Homo sapiens, UniProt P21675); assay: TAF1-BD2 TR-FRET Binding Assay; details: read-out: TAF1-BD2 HTRF IC50
Description: IC50 Measurements for Inhibitors Using TAF1-BD2 TR-FRET Binding Assay
His/Flag epitope tagged TAF1-BD21504-1635 was cloned, expressed, and purified to homogeneity. TAF1-BD2 binding and inhibition was assessed by monitoring the engagement of a biotinylated small molecule compound 1000 with the target using the TR-FRET assay technology (Perkin-Elmer). Specifically, in a 384 well ProxiPlate, TAF1-BD2 (0.012 uM final) in 50 mM HEPES (pH 7.5; final), 50 mM NaCl (final), 1 mM TCEP (final), 0.1 mg/mL BSA (final), and 0.069 mM Brij-35 (final) was added either in the presence of DMSO (final 0.2% DMSO) or compound dilution series in DMSO. After a 10 minute incubation at room temperature, biotin-ligand (0.04 uM final) was added. After 10 minutes incubation at room temperature, a mixture Eu-W1024 Anti-6×His antibody (Perkin Elmer AD0110) and SureLight™ Streptavidin-Allophycocyanin (SA-APC, Perkin Elmer CR130-100) were added to a final concentration of 0.2 nM antibody and 0.025 uM SA-APC, respectively. After forty minutes of equilibration at room temperature, the plates were read on an Envision instrument and IC50s calculated using a four parameter logistic model (XLFIT).

## 3-(hydroxymethyl)-4-(3-hydroxy-3-methyl-but-1-ynyl)-2,6-dimethyl-1H-pyrrolo[2,3-c]pyridin-7-one [Example 201]
TAF1-BD1
  IC50: 6.05 µM
TAF1-BD2
  IC50: 2.25 µM

## CCOC(=O)c1c(C)[nH]c2c(=O)n(C)cc(C#CC(O)(c3ccccc3)C(F)(F)F)c12 (single isomer, unassigned) [Example 91a, ethyl 2,6-dimethyl-7-oxo-4-(4,4,4-trifluoro-3-hydroxy-3-phenyl-but-1-ynyl)-1H-pyrrolo[2,3-c]pyridine-3-carboxylate]
TAF1-BD1
  IC50: 0.749 µM
TAF1-BD2
  IC50: 0.206 µM

## CCOC(=O)c1c(C)[nH]c2c(=O)n(C)cc(C#CC(O)(c3ccccc3)C(F)(F)F)c12 (single isomer, unassigned) [Example 91b, ethyl 2,6-dimethyl-7-oxo-4-(4,4,4-trifluoro-3-hydroxy-3-phenyl-but-1-ynyl)-1H-pyrrolo[2,3-c]pyridine-3-carboxylate]
TAF1-BD1
  IC50: 0.184 µM
TAF1-BD2
  IC50: 0.0422 µM

## CCOC(=O)c1c(C)[nH]c2c(=O)n(C)cc(C#CC(C)(O)C3CC3)c12 (single isomer, unassigned) [Example 92a, ethyl 4-(3-cyclopropyl-3-hydroxy-but-1-ynyl)-2,6-dimethyl-7-oxo-1H-pyrrolo[2,3-c]pyridine-3-carboxylate]
TAF1-BD1
  IC50: 0.154 µM
TAF1-BD2
  IC50: 0.0332 µM

## CCOC(=O)c1c(C)[nH]c2c(=O)n(C)cc(C#CC(C)(O)C3CC3)c12 (single isomer, unassigned) [Example 92b, ethyl 4-(3-cyclopropyl-3-hydroxy-but-1-ynyl)-2,6-dimethyl-7-oxo-1H-pyrrolo[2,3-c]pyridine-3-carboxylate]
TAF1-BD1
  IC50: 1.09 µM
TAF1-BD2
  IC50: 0.23 µM

## CCOC(=O)c1c(C)[nH]c2c(=O)n(C)cc(C#CC(O)(c3ccccc3)C(F)F)c12 (single isomer, unassigned) [Example 93a, ethyl 4-(4,4-difluoro-3-hydroxy-3-phenyl-but-1-ynyl)-2,6-dimethyl-7-oxo-1H-pyrrolo[2,3-c]pyridine-3-carboxylate]
TAF1-BD1
  IC50: 0.599 µM
TAF1-BD2
  IC50: 0.0655 µM

## CCOC(=O)c1c(C)[nH]c2c(=O)n(C)cc(C#CC(O)(c3ccccc3)C(F)F)c12 (single isomer, unassigned) [Example 93b, ethyl 4-(4,4-difluoro-3-hydroxy-3-phenyl-but-1-ynyl)-2,6-dimethyl-7-oxo-1H-pyrrolo[2,3-c]pyridine-3-carboxylate]
TAF1-BD1
  IC50: 0.176 µM
TAF1-BD2
  IC50: 0.0214 µM

## Cc1[nH]c2c(=O)n(C)cc(C#CC(C)(O)C3CC3)c2c1-c1nnc(C2CCOC2)o1 (single isomer, unassigned) [Example 96a, 4-(3-cyclopropyl-3-hydroxy-but-1-ynyl)-2,6-dimethyl-3-(5-tetrahydrofuran-3-yl-1,3,4-oxadiazol-2-yl)-1H-pyrrolo[2,3-c]pyridin-7-one]
TAF1-BD1
  IC50: 0.182 µM
TAF1-BD2
  IC50: 0.0407 µM

## Cc1[nH]c2c(=O)n(C)cc(C#CC(C)(O)C3CC3)c2c1-c1nnc(C2CCOC2)o1 (single isomer, unassigned) [Example 96b, 4-(3-cyclopropyl-3-hydroxy-but-1-ynyl)-2,6-dimethyl-3-(5-tetrahydrofuran-3-yl-1,3,4-oxadiazol-2-yl)-1H-pyrrolo[2,3-c]pyridin-7-one]
TAF1-BD1
  IC50: 1.14 µM
TAF1-BD2
  IC50: 0.26 µM

## Cc1[nH]c2c(=O)n(C)cc(C#CC(C)(O)C3CC3)c2c1-c1nnc(C(C)(C)C)o1 (single isomer, unassigned) [Example 98a, 3-(5-tert-butyl-1,3,4-oxadiazol-2-yl)-4-(3-cyclopropyl-3-hydroxy-but-1-ynyl)-2,6-dimethyl-1H-pyrrolo[2,3-c]pyridin-7-one]
TAF1-BD1
  IC50: 0.728 µM
TAF1-BD2
  IC50: 0.227 µM

## Cc1[nH]c2c(=O)n(C)cc(C#CC(C)(O)C3CC3)c2c1-c1nnc(C(C)(C)C)o1 (single isomer, unassigned) [Example 98b, 3-(5-tert-butyl-1,3,4-oxadiazol-2-yl)-4-(3-cyclopropyl-3-hydroxy-but-1-ynyl)-2,6-dimethyl-1H-pyrrolo[2,3-c]pyridin-7-one]
TAF1-BD1
  IC50: 0.108 µM
TAF1-BD2
  IC50: 0.0339 µM

## CCOC(=O)c1c(C)[nH]c2c(=O)n(C)cc(C#CC3(O)CCc4cccnc43)c12 (single isomer, unassigned) [Example 99a, ethyl 4-[2-(7-hydroxy-5,6-dihydrocyclopenta[b]pyridin-7-yl)ethynyl]-2,6-dimethyl-7-oxo-1H-pyrrolo[2,3-c]pyridine-3-carboxylate]
TAF1-BD1
  IC50: 2.93 µM
TAF1-BD2
  IC50: 1.18 µM

## CCOC(=O)c1c(C)[nH]c2c(=O)n(C)cc(C#CC3(O)CCc4cccnc43)c12 (single isomer, unassigned) [Example 99b, ethyl 4-[2-(7-hydroxy-5,6-dihydrocyclopenta[b]pyridin-7-yl)ethynyl]-2,6-dimethyl-7-oxo-1H-pyrrolo[2,3-c]pyridine-3-carboxylate]
TAF1-BD1
  IC50: 0.881 µM
TAF1-BD2
  IC50: 0.0844 µM

## CCOC(=O)c1c(C)[nH]c2c(=O)n(C)cc(C#C[C@@H]3CCC[C@H]3O)c12 (stereo in doubt) [Example 83, ethyl 4-[2-(2-hydroxycyclopentyl)ethynyl]-2,6-dimethyl-7-oxo-1H-pyrrolo[2,3-c]pyridine-3-carboxylate]
TAF1-BD1
  IC50: 2.59 µM
TAF1-BD2
  IC50: 0.302 µM

## CCOC(=O)c1c(C)[nH]c2c(=O)n(C)cc(C#C[C@@H]3CCCC[C@H]3O)c12 (stereo in doubt) [Example 84, ethyl 4-[2-(2-hydroxycyclohexyl)ethynyl]-2,6-dimethyl-7-oxo-1H-pyrrolo[2,3-c]pyridine-3-carboxylate]
TAF1-BD1
  IC50: 2 µM
TAF1-BD2
  IC50: 0.187 µM

## CCOC(=O)c1c(C)[nH]c2c(=O)n(C)cc(C#CC(O)(c3cccnc3)C(F)(F)F)c12 (stereo not drawn) [Example 1, ethyl 2,6-dimethyl-7-oxo-4-(4,4,4-trifluoro-3-hydroxy-3-(3-pyridyl)but-1-ynyl)-1H-pyrrolo[2,3-c]pyridine-3-carboxylate]
TAF1-BD1
  IC50: 0.312 µM
TAF1-BD2
  IC50: 0.0804 µM

## CCOC(=O)c1c(C)[nH]c2c(=O)n(C)cc(C#CC(O)(c3cccc(N)c3)C(F)(F)F)c12 (stereo not drawn) [Example 2, ethyl 4-[3-(3-aminophenyl)-4,4,4-trifluoro-3-hydroxy-but-1-ynyl]-2,6-dimethyl-7-oxo-1H-pyrrolo[2,3-c]pyridine-3-carboxylate]
TAF1-BD1
  IC50: 0.249 µM
TAF1-BD2
  IC50: 0.0453 µM

## CCOC(=O)c1c(C)[nH]c2c(=O)n(C)cc(C#C[C@](C)(O)c3ncccn3)c12 [Example 5, ethyl 4-[(3S)-3-hydroxy-3-pyrimidin-2-yl-but-1-ynyl]-2,6-dimethyl-7-oxo-1H-pyrrolo[2,3-c]pyridine-3-carboxylate]
TAF1-BD1
  IC50: 8.35 µM
TAF1-BD2
  IC50: 1.63 µM

## CCOC(=O)c1c(C)[nH]c2c(=O)n(C)cc(C#C[C@@](C)(O)c3ncccn3)c12 [Example 6, ethyl 4-[(3R)-3-hydroxy-3-pyrimidin-2-yl-but-1-ynyl]-2,6-dimethyl-7-oxo-1H-pyrrolo[2,3-c]pyridine-3-carboxylate]
TAF1-BD1
  IC50: 0.989 µM
TAF1-BD2
  IC50: 0.147 µM

## CCOC(=O)c1c(C)[nH]c2c(=O)n(C)cc(C#CC3(O)CCN(CC)CC3)c12 [Example 8, ethyl 4-[2-(1-ethyl-4-hydroxy-4-piperidyl)ethynyl]-2,6-dimethyl-7-oxo-1H-pyrrolo[2,3-c]pyridine-3-carboxylate]
TAF1-BD1
  IC50: 7.85 µM
TAF1-BD2
  IC50: 0.425 µM

## CCOC(=O)c1c(C)[nH]c2c(=O)n(C)cc(C#CC3(O)CCN(C)CC3)c12 [Example 9, ethyl 4-[2-(4-hydroxy-1-methyl-4-piperidyl)ethynyl]-2,6-dimethyl-7-oxo-1H-pyrrolo[2,3-c]pyridine-3-carboxylate]
TAF1-BD1
  IC50: 14.5 µM
TAF1-BD2
  IC50: 0.815 µM

## CCOC(=O)c1c(C)[nH]c2c(=O)n(C)cc(C#CC3(O)CCNCC3)c12 [Example 12, ethyl 4-[2-(4-hydroxy-4-piperidyl)ethynyl]-2,6-dimethyl-7-oxo-1H-pyrrolo[2,3-c]pyridine-3-carboxylate]
TAF1-BD1
  IC50: 0.757 µM
TAF1-BD2
  IC50: 0.429 µM

## CCOC(=O)c1c(C)[nH]c2c(=O)n(C)cc(C#CC3(C)COC3)c12 [Example 13, ethyl 2,6-dimethyl-4-[2-(3-methyloxetan-3-yl)ethynyl]-7-oxo-1H-pyrrolo[2,3-c]pyridine-3-carboxylate]
TAF1-BD1
  IC50: 0.434 µM
TAF1-BD2
  IC50: 0.379 µM

## CCOC(=O)c1c(C)[nH]c2c(=O)n(C)cc(C#CC(C)(C)CO)c12 [Example 15, ethyl 4-(4-hydroxy-3,3-dimethyl-but-1-ynyl)-2,6-dimethyl-7-oxo-1H-pyrrolo[2,3-c]pyridine-3-carboxylate]
TAF1-BD1
  IC50: 0.343 µM
TAF1-BD2
  IC50: 0.189 µM
